In the supplement of paper PMC13380429:

Tests used:
Conditions in all cases: 72 h
U2OS [1] = assay: drug sensitivity score (DSS) for viability; higher = more toxic; extreme values may be limits of the assay
Caco-2 [2] = assay: as above
HepG2 [3] = assay: as above
Vero E6 [4] = assay: as above
Calu-3 [5] = assay: as above
U2OS [6] = assay: relative viability EC50 (midpoint between 100% and the lowest measured viability); higher = less toxic
Caco-2 [7] = assay: as above
HepG2 [8] = assay: as above
Vero E6 [9] = assay: as above
Calu-3 [10] = assay: as above
U2OS [11] = assay: cell viability relative to DMSO; higher = less toxic
Caco-2 [12] = assay: as above
HepG2 [13] = assay: as above
Vero E6 [14] = assay: as above
Calu-3 [15] = assay: as above

| SMILES | drug sensitivity score (U2OS [1]) | drug sensitivity score (Caco-2 [2]) | drug sensitivity score (HepG2 [3]) | drug sensitivity score (Vero E6 [4]) | drug sensitivity score (Calu-3 [5]) | relative viability EC50 (U2OS [6]) | relative viability EC50 (Caco-2 [7]) | relative viability EC50 (HepG2 [8]) | relative viability EC50 (Vero E6 [9]) | relative viability EC50 (Calu-3 [10]) | cell viability (U2OS [11]; 1 nM) | cell viability (U2OS [11]; 10 nM) | cell viability (U2OS [11]; 100 nM) | cell viability (U2OS [11]; 1000 nM) | cell viability (U2OS [11]; 10000 nM) | cell viability (Caco-2 [12]; 1 nM) | cell viability (Caco-2 [12]; 10 nM) | cell viability (Caco-2 [12]; 100 nM) | cell viability (Caco-2 [12]; 1000 nM) | cell viability (Caco-2 [12]; 10000 nM) | cell viability (HepG2 [13]; 1 nM) | cell viability (HepG2 [13]; 10 nM) | cell viability (HepG2 [13]; 100 nM) | cell viability (HepG2 [13]; 1000 nM) | cell viability (HepG2 [13]; 10000 nM) | cell viability (Vero E6 [14]; 1 nM) | cell viability (Vero E6 [14]; 10 nM) | cell viability (Vero E6 [14]; 100 nM) | cell viability (Vero E6 [14]; 1000 nM) | cell viability (Vero E6 [14]; 10000 nM) | cell viability (Calu-3 [15]; 1 nM) | cell viability (Calu-3 [15]; 10 nM) | cell viability (Calu-3 [15]; 100 nM) | cell viability (Calu-3 [15]; 1000 nM) | cell viability (Calu-3 [15]; 10000 nM) |
| --- | --- | --- | --- | --- | --- | --- | --- | --- | --- | --- | --- | --- | --- | --- | --- | --- | --- | --- | --- | --- | --- | --- | --- | --- | --- | --- | --- | --- | --- | --- | --- | --- | --- | --- | --- |
| O=C1C[C@@H](c2ccc(O)cc2)Oc2cc(O)cc(O)c21 [naringenin] | 0 | 0 | 0 | 0 | 0 | > 10 µM | > 10 µM | > 10 µM | > 10 µM | > 10 µM | 98.9% | 104% | 95.6% | 102% | 103% | 114% | 103% | 90.3% | 97.2% | 88.5% | 104% | 107% | 99.3% | 95.1% | 99.9% | 101% | 99.7% | 101% | 94% | 93.3% | 93.2% | 97.9% | 89.9% | 99.7% | 93.7% |
| NCCCCCC(O)(P(=O)(O)O)P(=O)(O)O [neridronic-acid] | 0 | 0.6 | 0.3 | 0 | 0 | > 10 µM | > 10 µM | > 10 µM | > 10 µM | > 10 µM | 99.9% | 95.9% | 98.8% | 92.8% | 108% | 108% | 95% | 88.9% | 107% | 76.5% | 100% | 110% | 111% | 97.9% | 86.2% | 91.5% | 95.8% | 92.8% | 94.2% | 96.8% | 90.2% | 83.3% | 92% | 93.9% | 106% |
| Oc1ccc2c3c1O[C@H]1c4[nH]c5c(c4C[C@@]4(O)[C@@H](C2)N(CC2CC2)CC[C@]314)C[C@@]1(O)[C@H]2Cc3ccc(O)c4c3[C@@]1(CCN2CC1CC1)[C@H]5O4 [nor-binaltorphimine] | 0 | 0 | 0 | 0 | 0 | > 10 µM | > 10 µM | > 10 µM | > 10 µM | > 10 µM | 103% | 109% | 106% | 98.6% | 99% | 97.9% | 90.4% | 100% | 102% | 106% | 93.7% | 108% | 111% | 105% | 99.2% | 92.5% | 98.3% | 91.2% | 95.7% | 108% | 105% | 99.9% | 100% | 106% | 102% |
| CC(C)(F)C[C@H](N[C@@H](c1ccc(-c2ccc(S(C)(=O)=O)cc2)cc1)C(F)(F)F)C(=O)NC1(C#N)CC1 [odanacatib] | 0 | 0 | 0 | 0 | 0 | > 10 µM | > 10 µM | > 10 µM | > 10 µM | > 10 µM | 103% | 108% | 93.3% | 102% | 94.8% | 96.1% | 99.9% | 99.1% | 94.1% | 90.4% | 110% | 104% | 99.4% | 101% | 94.1% | 101% | 98.8% | 99.8% | 99.4% | 106% | 98.3% | 97.1% | 100% | 115% | 98.7% |
| CC(C)CCC[C@@H](C)[C@H]1CC[C@H]2[C@@H]3CCC4=CC(=NO)CC[C@]4(C)[C@H]3CC[C@]12C [olesoxime] | 0 | 0 | 0 | 0 | 0 | > 10 µM | > 10 µM | > 10 µM | > 10 µM | > 10 µM | 101% | 95.9% | 98% | 95.3% | 100% | 99.2% | 87.1% | 102% | 97.6% | 99.1% | 100% | 96.5% | 95.3% | 103% | 97.4% | 97.2% | 98.6% | 96.5% | 98.6% | 94.3% | 97.3% | 95.6% | 90.7% | 100% | 93.9% |
| OCCOc1ccc(/C(=C(/CCCl)c2ccccc2)c2ccccc2)cc1 [ospemifene] | 0 | 1.7 | 0 | 0 | 0 | > 10 µM | > 10 µM | > 10 µM | > 10 µM | > 10 µM | 98.4% | 104% | 98.1% | 101% | 93.1% | 103% | 108% | 104% | 91.3% | 78% | 99.5% | 97% | 103% | 107% | 106% | 97.9% | 102% | 101% | 99.9% | 94.2% | 96.7% | 103% | 106% | 96.6% | 101% |
| CCC(=O)NS(=O)(=O)c1ccc(-c2c(-c3ccccc3)noc2C)cc1 [parecoxib] | 0 | 0 | 0 | 0 | 0 | > 10 µM | > 10 µM | > 10 µM | > 10 µM | > 10 µM | 103% | 113% | 103% | 94.1% | 99.2% | 99.5% | 96% | 96.6% | 98.9% | 95.7% | 88.9% | 90% | 94% | 94.2% | 90.1% | 97.7% | 101% | 95.6% | 95.6% | 93.6% | 106% | 94.3% | 94.4% | 92.5% | 108% |
| CCCCCCCCCCCCCCCCCCOP(=O)([O-])OC1CC[N+](C)(C)CC1 [perifosine] | 0 | 0 | 0 | 0 | 0.8 | > 10 µM | > 10 µM | > 10 µM | > 10 µM | > 10 µM | 98.7% | 95.2% | 103% | 95% | 99.2% | 96.4% | 90.9% | 100% | 96.5% | 106% | 96.2% | 96% | 97.7% | 106% | 112% | 92.7% | 98.9% | 93.6% | 96.5% | 101% | 106% | 98% | 106% | 86.8% | 95.4% |
| C=C(C)[C@@H]1[C@H]2OC(=O)[C@@H]1[C@]1(O)C[C@H]3O[C@]34C(=O)O[C@H]2[C@]14C [picrotoxinin] | 0 | 0 | 0 | 0 | 0 | > 10 µM | > 10 µM | > 10 µM | > 10 µM | > 10 µM | 101% | 98.4% | 98.3% | 98.4% | 97.2% | 108% | 102% | 99.2% | 103% | 96.1% | 109% | 108% | 106% | 97.4% | 98.4% | 97.2% | 95.6% | 97.5% | 102% | 99.5% | 104% | 107% | 92.8% | 94.5% | 92.6% |
| O=[N+]([O-])c1nccn1CC(O)CN1CCCCC1 (stereo not given) [pimonidazole] | 0 | 0 | 0 | 0 | 0 | > 10 µM | > 10 µM | > 10 µM | > 10 µM | > 10 µM | 94% | 96.4% | 102% | 95.3% | 106% | 94.1% | 86.5% | 100% | 87.4% | 102% | 95.8% | 111% | 94.9% | 95.4% | 108% | 99.1% | 98% | 94.7% | 108% | 106% | 93.6% | 93.2% | 99.9% | 97% | 107% |
| CO[C@H]1[C@H](O)[C@@H](O)[C@@H](O)[C@H](O)[C@@H]1O [pinitol] | 0 | 0 | 0 | 0 | 0 | > 10 µM | > 10 µM | > 10 µM | > 10 µM | > 10 µM | 96.5% | 97.5% | 98.4% | 99.8% | 96% | 107% | 84.5% | 104% | 94% | 97% | 99.2% | 95.1% | 85.4% | 80% | 96.6% | 102% | 106% | 104% | 92.1% | 93.4% | 83.9% | 100% | 89.7% | 96.5% | 94.2% |
| C[C@]12CCC(=O)C=C1C=C[C@@H]1[C@@H]2CC[C@@]2(C)[C@H]1CC[C@@]2(O)CCC(=O)O [potassium-canrenoate] | 0 | 0 | 0 | 0 | 0 | > 10 µM | > 10 µM | > 10 µM | > 10 µM | > 10 µM | 97.1% | 104% | 98.9% | 100% | 98.9% | 93.8% | 112% | 77.3% | 88.9% | 105% | 106% | 89.4% | 85.4% | 87.9% | 99% | 102% | 91.6% | 102% | 88% | 100% | 102% | 94.7% | 107% | 101% | 104% |
| CC(=O)[C@H]1CC[C@H]2[C@@H]3CC=C4C[C@@H](O)CC[C@]4(C)[C@H]3CC[C@]12C [pregnenolone] | 0 | 0.3 | 0 | 0.4 | 0 | > 10 µM | > 10 µM | > 10 µM | > 10 µM | > 10 µM | 91.5% | 96.4% | 93.5% | 99.1% | 94.7% | 97.1% | 95.9% | 88.9% | 90.4% | 90.4% | 98.9% | 96% | 99.6% | 92.7% | 93.6% | 102% | 104% | 99.5% | 88.4% | 95.2% | 96.8% | 101% | 101% | 97.1% | 98.6% |
